Molecules are shown by their SMILES. In brackets after ≈: the same amount, converted by molar mass. Activity calls are given as the source filed them. No cut-off for these calls is given here. Where a SMILES comes first, the peptide text is derived from it. [ ]: non-standard residue; d: D form. The star is where a group is joined. JQ1acid = Cc1sc2c(c1C)C(c1ccc(Cl)cc1)=N[C@@H](CC(=O)*)c1nnc(C)n1-2; NHBn(4-(4-Me-thiazol-5-yl)) = Cc1ncsc1-c1ccc(CN*)cc1; Hyp = O=C(O)[C@@H]1C[C@@H](O)CN1; Tle = CC(C)(C)[C@H](N)C(=O)O; Sar = CNCC(=O)O

For series [1], the target named is von Hippel-Lindau disease tumor suppressor/Bromodomain-containing protein 4 (Homo sapiens) (UniProt O60885+P40337). Briefly: Protac activity at BRD4/VHL E3 ligase in human MDA-MB-231 cells assessed as decrease in BRD4 expression at 1 uM incubated for 4 to 24 hrs by Western blot analysis. As to conditions: time lower 4.0 hrs, time upper […]. It counts as cell-based.

Series [2] can be described thus: Thermodynamic solubility of compound in phosphate buffer at pH 7.4 incubated for 2 hrs with shaking by LC-UV analysis. As to conditions: read-out: Therm_solubility. It counts as physicochemical.
A short description of series [3]: Thermodynamic solubility of compound in HCL at pH 2 incubated for 2 hrs with shaking by LC-UV analysis. The conditions noted are these: read-out: Therm_solubility. It is filed as physicochemical.

Chain of von Hippel-Lindau disease tumor suppressor/Bromodomain-containing protein 4 (Homo sapiens) (P40337 whole entry, looked up, other chains not shown): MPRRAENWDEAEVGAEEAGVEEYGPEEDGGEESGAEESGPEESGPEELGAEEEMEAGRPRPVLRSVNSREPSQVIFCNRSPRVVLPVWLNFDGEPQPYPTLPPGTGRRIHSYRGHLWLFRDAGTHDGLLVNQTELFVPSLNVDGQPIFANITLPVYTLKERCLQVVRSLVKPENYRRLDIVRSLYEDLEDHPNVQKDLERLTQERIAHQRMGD

Turning to `Cc1ncsc1-c1ccc(CNC(=O)[C@@H]2C[C@@H](O)CN2C(=O)[C@@H](NC(=O)CNC(=O)CN2CCN(C(=O)C[C@@H]3N=C(c4ccc(Cl)cc4)c4c(sc(C)c4C)-n4c(C)nnc43)CC2)C(C)(C)C)cc1`, the outcome in series [1] was inactive.

Take `Cc1sc2c(c1C)C(c1ccc(Cl)cc1)=N[C@@H](CC(=O)NCCCCNC(=O)COc1cccc3c1C(=O)N(C1CCC(=O)NC1=O)C3=O)c1nnc(C)n1-2` (stereo not given in full): the solubility thermodynamic at 2 h in series [2] was determined as 60 µM (≈ 47.1 µg/mL); in series [3], 171 µM (≈ 134 µg/mL).

Turning to `Cc1ncsc1-c1ccc(CNC(=O)[C@@H]2C[C@@H](O)CN2C(=O)[C@@H](NC(=O)CNC(=O)CN(C)C(=O)C[C@@H]2N=C(c3ccc(Cl)cc3)c3c(sc(C)c3C)-n3c(C)nnc32)C(C)(C)C)cc1` (JQ1acid-[Sar]G[Tle][Hyp]-{NHBn(4-(4-Me-thiazol-5-yl))}), in series [1], the outcome was inactive.

Regarding `Cc1ncsc1-c1ccc(CNC(=O)[C@@H]2C[C@@H](O)CN2C(=O)[C@@H](NC(=O)CCCNC(=O)CN2CCN(C(=O)C[C@@H]3N=C(c4ccc(Cl)cc4)c4c(sc(C)c4C)-n4c(C)nnc43)CC2)C(C)(C)C)cc1`, the result in series [1] was inactive.

The record behind these values is ChEMBL document CHEMBL5236581, “A Versatile and Sustainable Multicomponent Platform for the Synthesis of Protein Degraders: Proof-of-Concept Application to BRD4-Degrading PROTACs” (J Med Chem, 2022).
